Results published in patent publication US9388389B2, “JFH-1 based HCV cell culture systems for NS5A of genotypes 1-7” (Hvidovre Hospital, priority 2009, dated 2016).
“And” between values parts separate entries of the source, which are not always exact repeats. Identical values can stand only once.

tested on: Huh7.5 cells; experiment: Infectivity titers (FFU) in supernatant after RNA transfection or viral passage; assay type: cell-based; details: Table 1b; maximum infectivity titer after transfection, Core-NS2 and NS5A of same genotype
Procedure: (§1) To determine the efficiency of the developed system, HCV RNA titers are determined in IU/ml (international units/ml) with Taq-Man Real-Time-PCR and infectious titers are determined with a focus-forming units (FFU) method: in this method, infectivity titers are determined by infection of cell culture replicates with serial dilutions of virus containing supernatants and, following immuno-stainings for HCV antigens, counting of HCV-antigen positive cell foci. Alternatively the infectious titers are determined as 50% tissue culture infectious dose.
(§2) Culturing of Huh7.5 cells was done as described by Gottwein et al. 2007. One day prior to transfection or infection, naïve Huh7.5 cells were plated at 4×10^5/well in 6-well plates. In vitro transcription was carried out for 2 hours with T7 RNA polymerase (Promega) on 5 μg plasmid linearized with XbaI and treated with Mung Bean Nuclease (New England Biolabs, Beverly, Mass., USA) to yield the exact HCV 3′ end. For transfection, 2.5 μg of unpurified RNA transcripts were incubated with 5 μL Lipofectamine2000™ (Invitrogen) in 500 μL Opti-MEM (Invitrogen) for 20 min at room temperature. RNA-Lipofectamine2000™ transfection complexes were left on cells for 16-24 hours before washing. For infection, virus-containing supernatant was left on cells for 6-24 hours. Supernatants collected during experiments were sterile filtered and stored at −80° C.
(§3) Anti-Core immunostaining was done with mouse anti-HCV Core protein monoclonal antibody (B2) (Anogen Mississauga, Ontario, Canada) as primary antibody and Alexa Fluor 594 goat anti-mouse IgG (H+L) (Invitrogen) as secondary antibody. HCV RNA titers were determined by a TaqMan™ real-time PCR assay. Infectivity titers were determined as follows: 6×10^3 naïve Huh7.5 cells were plated per well in a poly-D-lysine coated 96-well plate (Nunc) one day before inoculation with three replicates of individual 10-fold dilutions of cell culture supernatants. Inocula were left on cells for 48 hours and cells were fixed using ice could methanol. After washing, blocking buffer (1% BSA, 0.2% skim milk) was added for 20 min and endogenous peroxidases were inhibited by application of H2O2 for 5 min. Primary antibody (anti-NS3, clone H26, Abcam, Cambridge, UK) diluted 1:1000 was left on cells for 3-4 days. Secondary antibody was ECL anti-mouse IgG HRP-linked whole antibody (GE Healthcare Amersham, Brondby, Denmark). Staining was developed using DAB substrate kit (DAKO, Glostrup, Denmark). The number of focus-forming units (FFU) per well were counted manually (dilutions with 5-100 FFU counted) or automatically. Automatic counting was performed on an ImmunoSpot Series 5 UV Analyzer™ (CTL Europe GmbH, Aalen, Baden-Württemberg, DE) with customized software. From FFU counts in experimental wells, the mean of spot counts of negative control wells was subtracted (typically around 5 spots).

Substance	Transfection Log(FFU/mL)
SA13/JFH1(SA13-NS5A): SA13 Core-NS2/NS5A recombinant without mutations adaptive for SA13/JFH1, SEQ ID NO 53	4.0 Log(FFU/mL)
HK6a/JFH11389, 1590(HK6a-NS5A)7161: HK6a Core-NS2/NS5A recombinant with T7161A, SEQ ID NO 57	2.7 Log(FFU/mL)
S52/JFH12718, 4550(S52-NS5A)7625: S52 Core-NS2/NS5A recombinant with T7625C, SEQ ID NO 50	2.9 Log(FFU/mL)
S52/JFH12718, 4550(S52-NS5A): JFH1-based recombinant with Core-NS2 and NS5A of genotype 3a S52, SEQ ID NO 49	2.1 Log(FFU/mL) and 2.4 Log(FFU/mL)
J4/JFH12996, 4827(J4-NS5A)3893: J4 Core-NS2/NS5A recombinant with T3893A, SEQ ID NO 48	2.5 Log(FFU/mL)
QC69/JFH12985(QC69-NS5A): JFH1-based recombinant with Core-NS2 and NS5A of genotype 7a QC69, SEQ ID NO 58	2.7 Log(FFU/mL)
SA13/JFH13405, 3696(SA13-NS5A)6284, 7604: SA13 Core-NS2/NS5A recombinant with A6275G and T7604C, SEQ ID NO 55	4.5 Log(FFU/mL)

same assay, conditions: Table 1b; maximum infectivity titer; two values separated by slash = two independent passages

Substance	1st passage Log(FFU/mL)
HK6a/JFH11389, 1590(HK6a-NS5A)7161: HK6a Core-NS2/NS5A recombinant with T7161A, SEQ ID NO 57	3.3 Log(FFU/mL)
J4/JFH12996, 4827(J4-NS5A): JFH1-based recombinant with Core-NS2 and NS5A of genotype 1b J4, SEQ ID NO 47	1.0 Log(FFU/mL) and 1.3 Log(FFU/mL)
S52/JFH12718, 4550(S52-NS5A)7625: S52 Core-NS2/NS5A recombinant with T7625C, SEQ ID NO 50	3.8 Log(FFU/mL)
ED43/JFH12819, 3269(ED43-NS5A): JFH1-based recombinant with Core-NS2 and NS5A of genotype 4a ED43, SEQ ID NO 52	1.8 Log(FFU/mL)
S52/JFH12718, 4550(S52-NS5A): JFH1-based recombinant with Core-NS2 and NS5A of genotype 3a S52, SEQ ID NO 49	3.1 Log(FFU/mL)
J4/JFH12996, 4827(J4-NS5A)3893: J4 Core-NS2/NS5A recombinant with T3893A, SEQ ID NO 48	<2.3 Log(FFU/mL)
QC69/JFH12985(QC69-NS5A): JFH1-based recombinant with Core-NS2 and NS5A of genotype 7a QC69, SEQ ID NO 58	4.1 Log(FFU/mL)
SA13/JFH13405, 3696(SA13-NS5A)6284, 7604: SA13 Core-NS2/NS5A recombinant with A6275G and T7604C, SEQ ID NO 55	3.8 Log(FFU/mL)

same assay, conditions: Table 2; maximum infectivity titer observed in transfection experiments

Substance	Peak titers Transfection Log (FFUs/mL)
HK6a/JFH11389, 1590(HK6a-NS5A)7161: HK6a Core-NS2/NS5A recombinant with T7161A, SEQ ID NO 57	2.7 Log (FFUs/mL)
S52/JFH12718, 4550(S52-NS5A)7625: S52 Core-NS2/NS5A recombinant with T7625C, SEQ ID NO 50	2.9 Log (FFUs/mL)
ED43/JFH12819, 3269(ED43-NS5A): JFH1-based recombinant with Core-NS2 and NS5A of genotype 4a ED43, SEQ ID NO 52	2.0 Log (FFUs/mL)
J4/JFH12996, 4827(J4-NS5A)3893: J4 Core-NS2/NS5A recombinant with T3893A, SEQ ID NO 48	2.5 Log (FFUs/mL)
QC69/JFH12985(QC69-NS5A): JFH1-based recombinant with Core-NS2 and NS5A of genotype 7a QC69, SEQ ID NO 58	2.7 Log (FFUs/mL)
SA13/JFH13405, 3696(SA13-NS5A)6284, 7604: SA13 Core-NS2/NS5A recombinant with A6275G and T7604C, SEQ ID NO 55	4.5 Log (FFUs/mL)

same assay, conditions: Table 2; maximum infectivity titer observed in viral passage experiments

Substance	Peak titers Viral passage Log (FFUs/mL)
HK6a/JFH11389, 1590(HK6a-NS5A)7161: HK6a Core-NS2/NS5A recombinant with T7161A, SEQ ID NO 57	3.3 Log (FFUs/mL)
S52/JFH12718, 4550(S52-NS5A)7625: S52 Core-NS2/NS5A recombinant with T7625C, SEQ ID NO 50	3.8 Log (FFUs/mL)
ED43/JFH12819, 3269(ED43-NS5A): JFH1-based recombinant with Core-NS2 and NS5A of genotype 4a ED43, SEQ ID NO 52	1.8 Log (FFUs/mL)
J4/JFH12996, 4827(J4-NS5A)3893: J4 Core-NS2/NS5A recombinant with T3893A, SEQ ID NO 48	<2.3 Log (FFUs/mL)
QC69/JFH12985(QC69-NS5A): JFH1-based recombinant with Core-NS2 and NS5A of genotype 7a QC69, SEQ ID NO 58	4.1 Log (FFUs/mL)
SA13/JFH13405, 3696(SA13-NS5A)6284, 7604: SA13 Core-NS2/NS5A recombinant with A6275G and T7604C, SEQ ID NO 55	3.8 Log (FFUs/mL)

same assay, conditions: naïve Huh7.5 cells

Substance	infectivity titers in 1st passage / after passage to naïve cells
QC69/JFH12985(QC69-NS5A): JFH1-based recombinant with Core-NS2 and NS5A of genotype 7a QC69, SEQ ID NO 58	above 10^3 FFU/mL

tested on: Huh7.5 cells; experiment: Spread of infection in culture, anti-Core immunostaining; assay type: cell-based; details: Huh7.5 cells, after transfection of RNA transcripts
Procedure: as §2, §3

Substance	spread in culture / to the majority of culture, day after transfection
SA13/JFH1(SA13-NS5A): SA13 Core-NS2/NS5A recombinant without mutations adaptive for SA13/JFH1, SEQ ID NO 53	20 days
ED43/JFH12819,3269(ED43-NS5A)5270/7131: ED43 Core-NS2/NS5A recombinant with T5270C/A7131G, SEQ ID NO 193	17 days

same assay, conditions: after transfection into Huh7.5 cells

Substance	spread / replication in culture
ED43/JFH1(ED43-NS5A): ED43 Core-NS2/NS5A recombinant without mutations adaptive for ED43/JFH1, SEQ ID NO 51	never spread in culture

same assay, conditions: day 8 after transfection

Substance	percentage of culture infected
ED43/JFH12819, 3269(ED43-NS5A): JFH1-based recombinant with Core-NS2 and NS5A of genotype 4a ED43, SEQ ID NO 52	1%
ED43/JFH12819,3269(ED43-NS5A)5270/7131: ED43 Core-NS2/NS5A recombinant with T5270C/A7131G, SEQ ID NO 193	30%

tested on: Huh7.5 cells; experiment: HCV RNA titers by TaqMan real-time PCR; assay type: cell-based; details: Table 1b; maximum HCV RNA titer; two values separated by slash = two independent passages
Procedure: as §1, §3

Substance	1st passage Log(IU/mL)
HK6a/JFH11389, 1590(HK6a-NS5A): JFH1-based recombinant with Core-NS2 and NS5A of genotype 6a HK6a, SEQ ID NO 56	7.0 Log(IU/mL)
ED43/JFH12819, 3269(ED43-NS5A): JFH1-based recombinant with Core-NS2 and NS5A of genotype 4a ED43, SEQ ID NO 52	7.1 Log(IU/mL)
S52/JFH12718, 4550(S52-NS5A): JFH1-based recombinant with Core-NS2 and NS5A of genotype 3a S52, SEQ ID NO 49	7.0 Log(IU/mL)
QC69/JFH12985(QC69-NS5A): JFH1-based recombinant with Core-NS2 and NS5A of genotype 7a QC69, SEQ ID NO 58	7.3 Log(IU/mL)

same assay, conditions: Table 2; maximum HCV RNA titer in all passage samples analyzed

Substance	Peak titers Viral passage Log (IU/mL)
ED43/JFH12819, 3269(ED43-NS5A): JFH1-based recombinant with Core-NS2 and NS5A of genotype 4a ED43, SEQ ID NO 52	7.1 Log (IU/mL)
QC69/JFH12985(QC69-NS5A): JFH1-based recombinant with Core-NS2 and NS5A of genotype 7a QC69, SEQ ID NO 58	7.3 Log (IU/mL)

tested on: Huh7.5 cells; experiment: Genetic stability, direct sequencing of complete ORF after passage; details: Table 2; ORF sequenced after passage to naïve cells
Procedure: RNA was extracted from cell culture supernatant using (Highly Pure Viral Nucleic Acid Kit™, Roche, Mannheim, Del.). RT-PCR was done using SuperScriptIII™ (Invitrogen, Carlsbad, Calif., USA). In 1st round PCR the Advantage 2 PCR Enzyme System was used. Cycle parameters were 35 s at 99° C., 30 s at 67° C. and 10 min (cycle 1-5), 11 min (cycle 6-15), 12 min (cycle 16-25) or 13 min (cycle 26-35) at 68° C. 12˜1 kb products were synthesized in overlapping nested PCRs covering the entire ORF using primer pairs as previously described. Primer pairs 8, 9 and 10 were modified to the genotype specific NS5A sequence (Table 20, SEQ ID NO 163-192). Cycle parameters were 35 s at 99° C. followed by 35 cycles with 35 s at 99° C., 30 s at 67° C. and 6 min at 68° C.
All sequence reactions were performed at Macrogen Inc., Seoul, South Korea. Sequence analysis was performed with Sequencher™ (Gene Codes Corporation) Vector NTI 11 (Invitrogen) and BioEdit™ (Tom Hall, Ibis Therapeutics). HCV sequences were retrieved from the European HCV database (euHCVdb; at the http: internet location //euhcvdb.ibcp.fr/euHCVdb/) and the Los Alamos HCV sequence database (LANL; at the http: Internet location //hcv.lanl.gov/content/hcv-db/index).
Genetic stability of NS5A recombinants after passage to naïve cells. Supernatant samples from transfection culture were passaged to naïve Huh7.5 cells and the complete ORF was sequenced after spread of infection in culture to check for further need of adaptation.

Substance	Genetically stable
S52/JFH12718, 4550(S52-NS5A)7625: S52 Core-NS2/NS5A recombinant with T7625C, SEQ ID NO 50	Yes
ED43/JFH12819, 3269(ED43-NS5A): JFH1-based recombinant with Core-NS2 and NS5A of genotype 4a ED43, SEQ ID NO 52	No
J4/JFH12996, 4827(J4-NS5A)3893: J4 Core-NS2/NS5A recombinant with T3893A, SEQ ID NO 48	Yes
QC69/JFH12985(QC69-NS5A): JFH1-based recombinant with Core-NS2 and NS5A of genotype 7a QC69, SEQ ID NO 58	Yes
SA13/JFH13405, 3696(SA13-NS5A)6284, 7604: SA13 Core-NS2/NS5A recombinant with A6275G and T7604C, SEQ ID NO 55	Yes
